Laboratory results published in the supplement of paper PMC11424490.

How the values were obtained:
NCI-H2122 = experiment: combination cScore with adagrasib (Bliss gap around IC50) (%PoC); higher = stronger additive effect
Method: (§1)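 Combination screen of 179 inhibitors with the KRAS G12C inhibitor adagrasib (MRTX849) in dose matrices, CellTiter-Glo readout in NCI-H2122 (72 h), SW837 (144 h) and NCI-H358 cells. The cScore is the mean Bliss-independence gap (expected minus observed viability, in %PoC) over a 3x3 field around the IC50s of both drugs. Positive means additive, and >~10 is stated as clear additive.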

SW837 = experiment: as above
Method: as §1

Structure (SMILES) | combination cScore with adagrasib (NCI-H2122) | combination cScore with adagrasib (SW837)
CC(C)(C(=O)NCC(F)(F)C(F)(F)F)C(=O)N[C@@H]1C(=O)Nc2ccccc2-c2ccccc21 + C=C(F)C(=O)N1CCN(c2nc(OC[C@@H]3CCCN3C)nc3c2CCN(c2cccc4cccc(Cl)c24)C3)C[C@@H]1CC#N [adagrasib] | 6.57 | 9.86
NC(=O)c1ccc(-c2nc(-c3ccccn3)c(-c3ccc4c(c3)OCO4)[nH]2)cc1 + C=C(F)C(=O)N1CCN(c2nc(OC[C@@H]3CCCN3C)nc3c2CCN(c2cccc4cccc(Cl)c24)C3)C[C@@H]1CC#N [adagrasib] | 0.05 | -9.94
c1ccc(-c2nn3c(c2-c2ccnc4cc(OCCN5CCOCC5)ccc24)CCC3)nc1 + C=C(F)C(=O)N1CCN(c2nc(OC[C@@H]3CCCN3C)nc3c2CCN(c2cccc4cccc(Cl)c24)C3)C[C@@H]1CC#N [adagrasib] | -21.2 | 0.67
CC1(C)CCC(CN2CCN(c3ccc(C(=O)NS(=O)(=O)c4ccc(NCC5CCOCC5)c([N+](=O)[O-])c4)c(Oc4cnc5[nH]ccc5c4)c3)CC2)=C(c2ccc(Cl)cc2)C1 [ABT-199] + C=C(F)C(=O)N1CCN(c2nc(OC[C@@H]3CCCN3C)nc3c2CCN(c2cccc4cccc(Cl)c24)C3)C[C@@H]1CC#N [adagrasib] | 3.14 | -3.71
CO[C@H]1/C=C/C[C@H](C)[C@@H](C)S(=O)(=O)NC(=O)c2ccc3c(c2)N(C[C@@H]2CC[C@H]21)C[C@@]1(CCCc2cc(Cl)ccc21)CO3 [AMG176] + C=C(F)C(=O)N1CCN(c2nc(OC[C@@H]3CCCN3C)nc3c2CCN(c2cccc4cccc(Cl)c24)C3)C[C@@H]1CC#N [adagrasib] | 5.81 | -0.8
COc1cc(OC2CCN(C)CC2)ccc1Nc1ncc2c(n1)n(C1CCCC1)c(=O)n2C [AZ3146] + C=C(F)C(=O)N1CCN(c2nc(OC[C@@H]3CCCN3C)nc3c2CCN(c2cccc4cccc(Cl)c24)C3)C[C@@H]1CC#N [adagrasib] | -1.25 | 9.79
Cc1cc(Nc2nc(N[C@@H](C)c3ncc(F)cn3)ncc2Cl)[nH]n1 [AZD-1480] + C=C(F)C(=O)N1CCN(c2nc(OC[C@@H]3CCCN3C)nc3c2CCN(c2cccc4cccc(Cl)c24)C3)C[C@@H]1CC#N [adagrasib] | 3.87 | 1.14
NC(=O)Nc1cc(-c2cccc(F)c2)sc1C(=O)N[C@H]1CCCNC1 [AZD-7762] + C=C(F)C(=O)N1CCN(c2nc(OC[C@@H]3CCCN3C)nc3c2CCN(c2cccc4cccc(Cl)c24)C3)C[C@@H]1CC#N [adagrasib] | -0.23 | -2.72
COc1cc2cc(c1Cl)N(C)C(=O)C[C@H](OC(=O)C(C)C)[C@]1(C)O[C@@H]1[C@H](C)[C@@H]1C[C@@](O)(NC(=O)O1)[C@H](OC)/C=C/C=C(\C)C2 [Ansamitocin P3] + C=C(F)C(=O)N1CCN(c2nc(OC[C@@H]3CCCN3C)nc3c2CCN(c2cccc4cccc(Cl)c24)C3)C[C@@H]1CC#N [adagrasib] | -2.93 | 2.67
Cc1ncc([N+](=O)[O-])n1CCOC(=O)NC(Nc1ncccn1)C(Cl)(Cl)Cl (stereo unspecified) [Apcin] + C=C(F)C(=O)N1CCN(c2nc(OC[C@@H]3CCCN3C)nc3c2CCN(c2cccc4cccc(Cl)c24)C3)C[C@@H]1CC#N [adagrasib] | 2.71 | -0.93
Nc1ncn([C@@H]2O[C@H](CO)[C@@H](O)[C@H]2O)c(=O)n1 [Azacitidine] + C=C(F)C(=O)N1CCN(c2nc(OC[C@@H]3CCCN3C)nc3c2CCN(c2cccc4cccc(Cl)c24)C3)C[C@@H]1CC#N [adagrasib] | -1.39 | 9.12
CCN1CCN(c2ccc(Nc3cc(N(C)C(=O)Nc4c(Cl)c(OC)cc(OC)c4Cl)ncn3)cc2)CC1 [BGJ398] + C=C(F)C(=O)N1CCN(c2nc(OC[C@@H]3CCCN3C)nc3c2CCN(c2cccc4cccc(Cl)c24)C3)C[C@@H]1CC#N [adagrasib] | -3.17 | 3.09
O=C(Cc1ccccc1)Nc1nnc(CCSCCc2nnc(NC(=O)Cc3ccccc3)s2)s1 [BPTES] + C=C(F)C(=O)N1CCN(c2nc(OC[C@@H]3CCCN3C)nc3c2CCN(c2cccc4cccc(Cl)c24)C3)C[C@@H]1CC#N [adagrasib] | 8.57 | 7.09
Nc1nc(Nc2ccc3c(c2)CC[C@@H](N2CCCC2)CC3)nn1-c1cc2c(nn1)-c1ccccc1CCC2 [Bemcentinib] + C=C(F)C(=O)N1CCN(c2nc(OC[C@@H]3CCCN3C)nc3c2CCN(c2cccc4cccc(Cl)c24)C3)C[C@@H]1CC#N [adagrasib] | -0.08 | -0.26
C=C(c1ccc(C(=O)O)cc1)c1cc2c(cc1C)C(C)(C)CCC2(C)C [Bexarotene] + C=C(F)C(=O)N1CCN(c2nc(OC[C@@H]3CCCN3C)nc3c2CCN(c2cccc4cccc(Cl)c24)C3)C[C@@H]1CC#N [adagrasib] | -4.01 | 0.535
CC(O)(CS(=O)(=O)c1ccc(F)cc1)C(=O)Nc1ccc(C#N)c(C(F)(F)F)c1 (stereo unspecified) [Bicalutamide] + C=C(F)C(=O)N1CCN(c2nc(OC[C@@H]3CCCN3C)nc3c2CCN(c2cccc4cccc(Cl)c24)C3)C[C@@H]1CC#N [adagrasib] | 4.44 | 2.23
CO[C@H]1CC[C@H](n2c([C@@H]3CCCC(=O)N3c3ccc(F)c(F)c3)nc3cc(-c4c(C)noc4C)ccc32)CC1 [CCS1477] + C=C(F)C(=O)N1CCN(c2nc(OC[C@@H]3CCCN3C)nc3c2CCN(c2cccc4cccc(Cl)c24)C3)C[C@@H]1CC#N [adagrasib] | -1.66 | 7.35
O=C(O)CCCCC(CCSCc1ccccc1)SCc1ccccc1 (stereo unspecified) [CPI-613] + C=C(F)C(=O)N1CCN(c2nc(OC[C@@H]3CCCN3C)nc3c2CCN(c2cccc4cccc(Cl)c24)C3)C[C@@H]1CC#N [adagrasib] | -5.48 | 1.41
CCCCCOC(=O)Nc1nc(=O)n([C@@H]2O[C@H](C)[C@@H](O)[C@H]2O)cc1F [Capecitabin] + C=C(F)C(=O)N1CCN(c2nc(OC[C@@H]3CCCN3C)nc3c2CCN(c2cccc4cccc(Cl)c24)C3)C[C@@H]1CC#N [adagrasib] | -6.31 | 2.14
C[C@H](CS)C(=O)N1CCC[C@H]1C(=O)O [Captopril] + C=C(F)C(=O)N1CCN(c2nc(OC[C@@H]3CCCN3C)nc3c2CCN(c2cccc4cccc(Cl)c24)C3)C[C@@H]1CC#N [adagrasib] | -0.24 | -3.8
O=C(O)C1(C(=O)O)CCC1.[NH2-].[NH2-].[Pt+2] [Carboplatin] + C=C(F)C(=O)N1CCN(c2nc(OC[C@@H]3CCCN3C)nc3c2CCN(c2cccc4cccc(Cl)c24)C3)C[C@@H]1CC#N [adagrasib] | -1.99 | -6.32
COc1cc2c(Oc3ccc4[nH]c(C)cc4c3F)ncnc2cc1OCCCN1CCCC1 [Cediranib] + C=C(F)C(=O)N1CCN(c2nc(OC[C@@H]3CCCN3C)nc3c2CCN(c2cccc4cccc(Cl)c24)C3)C[C@@H]1CC#N [adagrasib] | -4.17 | -0.83
N.N.[Cl][Pt][Cl] [Cisplatin] + C=C(F)C(=O)N1CCN(c2nc(OC[C@@H]3CCCN3C)nc3c2CCN(c2cccc4cccc(Cl)c24)C3)C[C@@H]1CC#N [adagrasib] | -1.07 | -1.26
